Data reported in publication PMC4363860 (Scientific Reports, 2015).
Read-outs that look alike come from different tables or passages of the source. Where a SMILES comes first, the peptide text is derived from it. [ ]: non-standard residue; d: D form. The star is where a group is joined. Lauroyl = CCCCCCCCCCCC(=O)*; 12Ado = NCCCCCCCCCCCC(=O)O

How the values were obtained:
[1] = test system: Human blood (red cells, 1% hematocrit); settings: 3 h incubation in PBS 37°C; published data; cited from earlier work
Text: Table 1 Structure-activity study highlighting biophysical attributes of N-terminal OAK derivatives | column: LC50 ^d (μM)

E. coli = assay: MIC and reciprocal sensitization (Fig. 2a,b; Suppl. Figs S2, S3); type: cell-based, Escherichia coli
Klebsiella = assay: MIC (Suppl. Figs S2, S3); type: cell-based
[2] = test system: panel of GNB: E. coli 35218, 14182, 16327, 16329, 14384, S. Typhimurium 14028, S. stanley 7308, K. pneumoniae 1287, KPC2; assay: MIC and chemo-sensitization, one result for the whole panel of GNB (Suppl. Table S1)
[3] = one value for all nine listed strains
[4] = one value for all nine listed strains, OAK 1.25 µg/ml
[5] = one value for all nine listed strains, OAK 2.5 µg/ml
[6] = one value for all nine listed strains, OAK 5 µg/ml

## NCCCC[C@H](NC(=O)CCCCCCCCCCCNC(=O)[C@H](CCCCN)NC(=O)[C@@H](N)CCCCN)C(N)=O [X, lysyl-lysyl-aminododecanoyl-lysyl-amide] (H-KK[12Ado]K-NH2)
[1]
  LC50, OAK concentration that induced 50% hemolysis: >100 µM

## CC[C@H]1OC(=O)[C@H](C)[C@@H](O[C@H]2C[C@@](C)(OC)[C@@H](O)[C@H](C)O2)[C@H](C)[C@@H](O[C@@H]2O[C@H](C)C[C@H](N(C)C)[C@H]2O)[C@](C)(O)C[C@@H](C)C(=O)[C@H](C)[C@@H](O)[C@]1(C)O [erythromycin]
E. coli
  standalone antibiotic MIC: 512 µg/mL
Klebsiella
  standalone antibiotic MIC: 512 µg/mL

## CCCCCCCCCCCC(=O)N[C@@H](CCCCN)C(=O)N[C@@H](CCCCN)C(=O)NCCCCCCCCCCCC(=O)N[C@@H](CCCCN)C(N)=O [C12X] (Lauroyl-KK[12Ado]K-NH2)
[1]
  LC50, OAK concentration that induced 50% hemolysis: 29 ± 9 µM

## CC1(C)S[C@@H]2[C@H](NC(=O)Cc3ccccc3)C(=O)N2[C@H]1C(=O)O [Penicillin G, penicillin G]
[2]; [3]
  SF, sensitization factor, penicillin G with C10KKc12K: 1
  SF, sensitization factor, penicillin G with C12(ω7)KKc12K: 1
[2]; [4]
  MIC of penicillin G in presence of C10KKc12K: > 512 µg/mL
  MIC of penicillin G in presence of C12(ω7)KKc12K: > 512 µg/mL
[2]; [5]
  MIC of penicillin G in presence of C10KKc12K: > 512 µg/mL
  MIC of penicillin G in presence of C12(ω7)KKc12K: > 512 µg/mL
[2]; [6]
  MIC of penicillin G in presence of C10KKc12K: > 512 µg/mL
  MIC of penicillin G in presence of C12(ω7)KKc12K: > 512 µg/mL
[2]; read-out: MIC of penicillin G in presence of C10KKc12K
  MIC: > 512 µg/mL
[2]; read-out: MIC of penicillin G in presence of C12(ω7)KKc12K
  MIC: > 512 µg/mL
